Reference: PubChem BioAssay AID743336 (Broad Institute, 2014)
Records with an inconclusive call do not appear.

Tested on: C2C12 myotubes + simvastatin, ATP luminescence, 48 h
Experiment: rescue of simvastatin myotoxicity in C2C12 – cell-based, differentiated C2C12, luminescence, dry powder, dose response (AID 743336)

| SMILES | AC40 |
| --- | --- |
| C[C@H]1CN([C@@H](C)CO)C(=O)Cc2cc(NC(=O)CCCCCC(=O)Nc3ccccc3N)ccc2O[C@H]1CN(C)Cc1ccccc1 | 13.8 µM |
| C[C@H]1CN([C@@H](C)CO)C(=O)c2cc(NC(=O)Nc3cccc4ccccc34)ccc2O[C@H]1CN(C)Cc1ccc(C(=O)Nc2ccccc2N)cc1 | 13.5 µM |
